Data: PubChem BioAssay AID248 (DTP/NCI, 2004)
Several values for one entry are separate records, joined by “and”; a condition that tells them apart may be missing. Equal entries are not always repeated. Inconclusive results and toxic doses are left out. Rule as the data show it: active = T/C of 150% or more; inactive = T/C below 125%.

System: L1210 leukemia ip in BDF1 mice, survival T/C
Assay: NCI In Vivo Anticancer Drug Screen. Data for tumor model L1210 Leukemia (intraperitoneal) in B6D2F1 (BDF1) mice
Details: endpoint: mean survival time, higher = longer survival
Outline: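 Transplantable tumor model; survival measured in treated vs vehicle control mice. Value = treated/control.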

[1] = dose: 100.0 mg/kg/injection, schedule: Q01DX009 (ip), vehicle: Klucel (hydroxypropylcellulose) (HPC)
[2] = dose: 100.0 mg/kg/injection, schedule: Q04DX003 (ip), vehicle: Klucel (hydroxypropylcellulose) (HPC)
[3] = dose: 200.0 mg/kg/injection, schedule: Q01DX009 (ip), vehicle: Klucel (hydroxypropylcellulose) (HPC)
[4] = dose: 200.0 mg/kg/injection, schedule: Q04DX003 (ip), vehicle: Klucel (hydroxypropylcellulose) (HPC)
[5] = dose: 400.0 mg/kg/injection, schedule: Q04DX003 (ip), vehicle: Klucel (hydroxypropylcellulose) (HPC)
[6] = dose: 100.0 mg/kg/injection, schedule: Q01DX001 (ip), vehicle: saline
[7] = dose: 200.0 mg/kg/injection, schedule: Q01DX001 (ip), vehicle: saline
[8] = dose: 400.0 mg/kg/injection, schedule: Q01DX001 (ip), vehicle: saline
[9] = dose: 100.0 mg/kg/injection, schedule: Q01DX009 (ip), vehicle: saline with Tween-80
[10] = dose: 200.0 mg/kg/injection, schedule: Q01DX009 (ip), vehicle: saline with Tween-80
[11] = dose: 400.0 mg/kg/injection, schedule: Q01DX009 (ip), vehicle: saline with Tween-80

Measured: T/C

O=[N+]([O-])/C=C/c1ccc(Cl)cc1Cl
inactive: dose: 20.0 mg/kg/injection, schedule: Q01DX009 (ip), vehicle: saline with Tween-80 98 % of control | dose: 20.0 mg/kg/injection, schedule: Q04DX003 (ip), vehicle: saline with Tween-80 90 % of control | dose: 25.0 mg/kg/injection, schedule: Q04DX002 (ip), vehicle: Klucel (hydroxypropylcellulose) (HPC) 106 % of control | dose: 40.0 mg/kg/injection, schedule: Q01DX009 (ip), vehicle: saline with Tween-80 102 % of control | dose: 40.0 mg/kg/injection, schedule: Q04DX003 (ip), vehicle: saline with Tween-80 101 % of control | dose: 50.0 mg/kg/injection, schedule: Q01DX001 (ip), vehicle: carboxymethylcellulose (CMC) 95 % of control | dose: 50.0 mg/kg/injection, schedule: Q04DX002 (ip), vehicle: Klucel (hydroxypropylcellulose) (HPC) 100 % of control | dose: 80.0 mg/kg/injection, schedule: Q04DX003 (ip), vehicle: saline with Tween-80 111 % of control | dose: 100.0 mg/kg/injection, schedule: Q01DX001 (ip), vehicle: carboxymethylcellulose (CMC) 98 % of control | dose: 200.0 mg/kg/injection, schedule: Q01DX001 (ip), vehicle: carboxymethylcellulose (CMC) 89 % of control | dose: 400.0 mg/kg/injection, schedule: Q01DX001 (ip), vehicle: carboxymethylcellulose (CMC) 101 % of control

CC(C)CNC(=O)c1cccc(-c2ccccc2C(=O)NCC(C)C)c1
inactive: dose: 100.0 mg/kg/injection, schedule: Q01DX001 (ip), vehicle: other 91 % of control | dose: 200.0 mg/kg/injection, schedule: Q01DX001 (ip), vehicle: other 93 % of control | dose: 400.0 mg/kg/injection, schedule: Q01DX001 (ip), vehicle: other 96 % of control

COC1CCC(C2=NC3CCCCC3SC2)CC1 (configuration not stated)
inactive: dose: 100.0 mg/kg/injection, schedule: Q04DX002 (sc), vehicle: olive oil, sesame oil, peanut oil 97 % of control | dose: 200.0 mg/kg/injection, schedule: Q04DX002 (sc), vehicle: olive oil, sesame oil, peanut oil 107 % of control | dose: 400.0 mg/kg/injection, schedule: Q04DX002 (sc), vehicle: olive oil, sesame oil, peanut oil 100 % of control

CCOC(=O)C12CCC(CC1)C(C(=O)O)C2C(=O)O (configuration not stated)
inactive: dose: 75.0 mg/kg/injection, schedule: Q04DX002 (ip), vehicle: saline with Tween-80 99 % of control | dose: 150.0 mg/kg/injection, schedule: Q04DX002 (ip), vehicle: saline with Tween-80 89 % of control | dose: 300.0 mg/kg/injection, schedule: Q04DX002 (ip), vehicle: saline with Tween-80 92 % of control

COP1(=O)OCC2OC(n3cnc4c(N)ncnc43)C(O)C2O1 (configuration not stated)
inactive: dose: 100.0 mg/kg/injection, schedule: Q01DX005 (ip), vehicle: saline 95 % of control and 103 % of control | dose: 100.0 mg/kg/injection, schedule: Q01DX009 (ip), vehicle: saline 89 % of control | dose: 200.0 mg/kg/injection, schedule: Q01DX005 (ip), vehicle: saline 89 % of control and 92 % of control | dose: 200.0 mg/kg/injection, schedule: Q01DX009 (ip), vehicle: saline 92 % of control | dose: 400.0 mg/kg/injection, schedule: Q01DX005 (ip), vehicle: saline 92 % of control | dose: 400.0 mg/kg/injection, schedule: Q01DX009 (ip), vehicle: saline 98 % of control | dose: 600.0 mg/kg/injection, schedule: Q01DX005 (ip), vehicle: saline 101 % of control

O=C1CCCc2cc3c(cc21)CCCC3
inactive: [1] 96 % of control | [2] 109 % of control | [3] 97 % of control | [4] 107 % of control | [5] 102 % of control

CNC(=O)C(C)(C)C
inactive: dose: 100.0 mg/kg/injection, schedule: Q01DX001 (ip), vehicle: saline with Tween-80 100 % of control | dose: 200.0 mg/kg/injection, schedule: Q01DX001 (ip), vehicle: saline with Tween-80 103 % of control | dose: 400.0 mg/kg/injection, schedule: Q01DX001 (ip), vehicle: saline with Tween-80 100 % of control

C[N+]1(C2CCCCC2)CCCCC1
inactive: dose: 10.0 mg/kg/injection, schedule: Q01DX001 (ip), vehicle: acetone 96 % of control | dose: 10.0 mg/kg/injection, schedule: Q01DX001 (ip), vehicle: saline 98 % of control | dose: 20.0 mg/kg/injection, schedule: Q01DX001 (ip), vehicle: acetone 95 % of control | dose: 20.0 mg/kg/injection, schedule: Q01DX001 (ip), vehicle: saline 95 % of control | dose: 40.0 mg/kg/injection, schedule: Q01DX001 (ip), vehicle: acetone 102 % of control | dose: 40.0 mg/kg/injection, schedule: Q01DX001 (ip), vehicle: saline 93 % of control | dose: 75.0 mg/kg/injection, schedule: Q01DX001 (ip), vehicle: saline 101 % of control

COC(c1ccccc1)(c1ccccc1)c1ccccc1
inactive: dose: 50.0 mg/kg/injection, schedule: Q01DX001 (ip), vehicle: saline 91 % of control | [6] 103 % of control | [7] 101 % of control | [8] 95 % of control

COc1cc(N)nc(OC)n1
inactive: [9] 98 % of control | [10] 98 % of control | [11] 97 % of control

CCCNC(=O)Nc1ccccc1OC
inactive: dose: 100.0 mg/kg/injection, schedule: Q04DX002 (ip), vehicle: Klucel (hydroxypropylcellulose) (HPC) 97 % of control | dose: 200.0 mg/kg/injection, schedule: Q04DX002 (ip), vehicle: Klucel (hydroxypropylcellulose) (HPC) 87 % of control | dose: 400.0 mg/kg/injection, schedule: Q04DX002 (ip), vehicle: Klucel (hydroxypropylcellulose) (HPC) 94 % of control

Cc1cc2nc3ccc(=[N+](C)C)cc-3sc2cc1N
inactive: dose: 3.12 mg/kg/injection, schedule: Q01DX009 (ip), vehicle: saline 94 % of control | dose: 6.25 mg/kg/injection, schedule: Q01DX009 (ip), vehicle: saline 100 % of control | dose: 12.5 mg/kg/injection, schedule: Q01DX009 (ip), vehicle: saline 117 % of control | dose: 25.0 mg/kg/injection, schedule: Q01DX009 (ip), vehicle: saline 101 % of control | dose: 25.0 mg/kg/injection, schedule: Q04DX003 (ip), vehicle: saline 98 % of control | dose: 50.0 mg/kg/injection, schedule: Q01DX009 (ip), vehicle: saline 100 % of control | dose: 50.0 mg/kg/injection, schedule: Q04DX003 (ip), vehicle: saline 106 % of control

S=c1ncn(-c2ccccc2)[nH]1
inactive: dose: 50.0 mg/kg/injection, schedule: Q01DX009 (ip), vehicle: saline with Tween-80 103 % of control | [9] 95 % of control | [10] 95 % of control

CC1(C)C(c2ccccc2)=NN=C1c1ccccc1
inactive: [9] 93 % of control | dose: 100.0 mg/kg/injection, schedule: Q04DX003 (ip), vehicle: saline with Tween-80 90 % of control | [10] 91 % of control | dose: 200.0 mg/kg/injection, schedule: Q04DX003 (ip), vehicle: saline with Tween-80 104 % of control | [11] 112 % of control | dose: 400.0 mg/kg/injection, schedule: Q04DX003 (ip), vehicle: saline with Tween-80 104 % of control

COC(=O)C1OC1c1cc(Br)ccc1OC (configuration not stated)
inactive: [6] 102 % of control | [7] 103 % of control | [8] 102 % of control

CCCCCCCC(=O)CCCC
inactive: [1] 101 % of control | [2] 103 % of control | [3] 98 % of control | [4] 101 % of control | dose: 400.0 mg/kg/injection, schedule: Q01DX009 (ip), vehicle: Klucel (hydroxypropylcellulose) (HPC) 102 % of control | [5] 101 % of control
